What is called IC50 is the concentration at which inhibition is half-maximal.

In this assay the target is T1, full length active recombinant SYK enzyme (Homo sapiens, UniProt P43405).
T1 construct: full length active recombinant SYK enzyme (Millipore, Calif.); purchased Millipore
The assay can be described thus: Inhibition of Syk tyrosine phosphorylation activity (LANCE TR-FRET kinase assay). It counts as biochemical. The conditions noted are these: activity in the Syk assays, class symbols. The text has this: The in vitro and in vivo human Syk activities of the inventive compounds can be determined by various procedures known in the art, such as a test for their ability to inhibit the activity of human plasma Syk. […] The IC50 value is the concentration (in nM) of the compound required to provide 50% inhibition of human Syk proteolytic activity.
An in vitro assay for detecting and measuring inhibition activity against Syk is as follows:
Inhibition of Syk Tyrosine Phosphorylation Activity
Potency of candidate molecules for inhibiting Syk tyrosine phosphorylation activity is assessed by measuring the ability of a test compound to inhibit Syk-mediated tyrosine phosphorylation of a Syk-specific substrate.
SYK tyrosine phosphorylation activity is measured using the LANCE™ Technology developed by Perkin Elmer Life and Analytical Sciences (Boston, Mass.). LANCE™ refers to homogeneous time resolved fluorometry applications using techniques such as time-resolved fluorescence resonance energy transfer assay (TR-FRET) (see generally for procedures in Perkin Elmer Application Note-How to Optimize a Tyrosine Kinase Assay Using Time Resolved Fluorescence-Based LANCE Detection, wwww.perkinelmer.com/lifesciences). The assay principle involves detection of a phosphorylated substrate using energy transfer from a phosphospecific europium-labeled antibody to streptavidin-allophycocyanin as an acceptor.
To test the ability of candidate molecules to inhibit SYK tyrosine phosphorylation activity, molecules are reconstituted in 30% DMSO and serially diluted 1:3 with the final dilution containing DMSO in the absence of the candidate molecule. The final DMSO concentration in the assay is 3%. Kinase assays are performed as a two part reaction. The first reaction is a kinase reaction and which comprises of a candidate molecule, full length active recombinant SYK enzyme (Millipore, Calif.) and biotin-labeled SYK-specific substrate biotin-DEEDYESP-OH. The second reaction involves termination of the kinase reaction and the simultaneous addition of the detection reagents-europium-labeled anti-phosphotyrosine reagent (Eu-W1024-PY100, Perkin Elmer, Boston, Mass.) and Streptavidin-Allophycocyanin detection reagent (SA-APC, Prozyme, CA). The kinase reaction is performed in a black U-bottom 96-well microtitre plate. The final reaction volume is 50 μL and contains a final concentration of 1 nM active SYK enzyme, 550 nM SYK-substrate, and 100 μM ATP diluted in a buffer containing 50 mM Tris pH 7.5, 5 mM MgCl2, and 1 mM DTT. The reaction is allowed to proceed for 1 hour at room temperature. The quench buffer contains 100 mM Tris pH 7.5, 300 mM NaCl2, 20 mM EDTA, 0.02% Brij35, and 0.5% BSA. The detection reagents are added to the reaction mixture at the following dilutions-1:500 for Eu-W1024-PY100 and 1:250 for SA-APC. The kinase reaction is terminated by the addition of 50 μL quench buffer containing the detection reagents. The detection is allowed to proceed for 1 hr at room temperature. Detection of the phosphorlated substrate in the absence and presence of inhibitors is measured in the TR-FRET instrument, Analyst HT (Molecular Probes, Sunnyvale, Calif.) and the condition for measurements are set up using CriterionHost Release 2.0 (Molecular Probes, Sunnyvale, Calif.). The settings used are a follows: excitation 360 nm, emission 665-7.5 nm, beam splitter 350 nm 50/50, flash 100 pulses, delay 60 us, integration 400 us, z-height 2 mm. Inhibition of SYK-tyrosine kinase activity is calculated as the maximum response observed in the presence of inhibitor, compared to that in the absence of inhibitor. IC50s were derived by non-linear regression analysis.
(In general: In TR-FRET formats the signal depends on donor and acceptor labels being close together.)
For `CC[C@@H](Nc1cnc(C(N)=O)c(Nc2ccc(-c3nnco3)cc2)n1)C(N)=O` [Example 27, (R)-3-(4-(1,3,4-oxadiazol-2-yl)phenylamino)-5-(1-amino-1-oxobutan-2-ylamino)pyrazine-2-carboxamide], the IC50 lay within 0.01 to 0.1 µM.
With `CC[C@@H](Nc1cnc(C(N)=O)c(Nc2ccc(-c3ccncc3)cc2)n1)C(N)=O` [Example 28, (R)-5-(1-amino-1-oxobutan-2-ylamino)-3-(4-(pyridin-4-yl)phenylamino)pyrazine-2-carboxamide] the figure was 0.001 to 0.01 µM; with `CC[C@@H](Nc1cnc(C(N)=O)c(Nc2ccc(-c3cccnc3)cc2)n1)C(N)=O` [Example 29, (R)-5-(1-amino-1-oxobutan-2-ylamino)-3-(4-(pyridin-3-yl)phenylamino)pyrazine-2-carboxamide], 0.001 to 0.01 µM; with `CC[C@@H](Nc1cnc(C(N)=O)c(Nc2ccc3c(c2)CCC(=O)N3)n1)C(N)=O` [Example 30, (R)-5-(1-amino-1-oxobutan-2-ylamino)-3-(2-oxo-1,2,3,4-tetrahydroquinolin-6-ylamino)pyrazine-2-carboxamide], 0.001 to 0.01 µM.
With `NC(=O)c1ncc(N[C@H](Cc2ccccc2)C(N)=O)nc1Nc1ccc2ncccc2c1` [Example 31, (R)-5-(1-amino-1-oxo-3-phenylpropan-2-ylamino)-3-(quinolin-6-ylamino)pyrazine-2-carboxamide] the figure was 0.001 to 0.01 µM; with `NC(=O)c1ncc(N[C@H](Cc2cccs2)C(N)=O)nc1Nc1ccc2ncccc2c1` [Example 32, (R)-5-(1-amino-1-oxo-3-(thiophen-2-yl)propan-2-ylamino)-3-(quinolin-6-ylamino)pyrazine-2-carboxamide], < 0.001 µM; with `NC(=O)c1ncc(N[C@@H](C(N)=O)c2ccccc2)nc1Nc1ccc2ncccc2c1` [Example 33, (R)-5-(2-amino-2-oxo-1-phenylethylamino)-3-(quinolin-6-ylamino)pyrazine-2-carboxamide], 0.001 to 0.01 µM.
On to `NC(=O)c1ncc(NC2(C(N)=O)CCC2)nc1Nc1ccc2ncccc2c1` [Example 34, 5-(1-carbamoylcyclobutylamino)-3-(quinolin-6-ylamino)pyrazine-2-carboxamide], for which the IC50 was in the range of 0.001 to 0.01 µM.
In the case of `NC(=O)c1ncc(N[C@@H]2CCCC[C@@H]2N)nc1NC1CCOCC1` [Example 35, 5-((1R,2S)-2-aminocyclohexylamino)-3-(tetrahydro-2H-pyran-4-ylamino)pyrazine-2-carboxamide], the IC50 is > 1 µM.
For the compound `NC(=O)c1ncc(N[C@@H]2CCCC[C@@H]2N)nc1NC1CCCC1` [Example 36, 5-((1R,2S)-2-aminocyclohexylamino)-3-(cyclopentylamino)pyrazine-2-carboxamide], the IC50 is > 1 µM.
Turning to `NC(=O)c1ncc(N[C@@H]2CCCC[C@@H]2N)nc1NC1Cc2ccccc2C1` [Example 37, 5-((1R,2S)-2-aminocyclohexylamino)-3-(2,3-dihydro-1H-inden-2-ylamino)pyrazine-2-carboxamide], the half-maximal inhibitory concentration (IC50) is 0.01 to 0.1 µM.
As to `NC(=O)c1ncc(N[C@@H]2CCCC[C@@H]2N)nc1N[C@@H]1CCc2ccccc21` [Example 38, 5-((1R,2S)-2-aminocyclohexylamino)-3-((R)-2,3-dihydro-1H-inden-1-ylamino)pyrazine-2-carboxamide], the IC50 lay in the range of 0.1 to 1 µM.
Consider `NC(=O)c1ncc(N[C@@H]2CCCC[C@@H]2N)nc1N[C@H]1CCc2ccccc21` [Example 39, 5-((1R,2S)-2-aminocyclohexylamino)-3-((S)-2,3-dihydro-1H-inden-1-ylamino)pyrazine-2-carboxamide], for which the IC50 lay within 0.1 to 1 µM.
Consider `NC(=O)c1ncc(N[C@@H]2CCCC[C@@H]2N)nc1Nc1cc(-n2cccn2)cc(-n2cccn2)c1` [Example 44, 5-((1R,2S)-2-aminocyclohexylamino)-3-(3,5-di(1H-pyrazol-1-yl)phenylamino)pyrazine-2-carboxamide], for which the IC50 lay within 0.001 to 0.01 µM.
With `NC(=O)c1ncc(N[C@@H]2CCCC[C@@H]2N)nc1Nc1cc(-c2ncccn2)cc(-n2cccn2)c1` [Example 45, 3-(3-(1H-pyrazol-1-yl)-5-(pyrimidin-2-yl)phenylamino)-5-((1R,2S)-2-aminocyclohexylamino)pyrazine-2-carboxamide] the figure was 0.001 to 0.01 µM; with `NC(=O)c1ncc(N[C@@H]2CCNC2)nc1Nc1cnc2ccccc2c1` [Example 55, (R)-5-(pyrrolidin-3-ylamino)-3-(quinolin-3-ylamino)pyrazine-2-carboxamide], 0.001 to 0.01 µM; with `NC(=O)c1ncc(N[C@@H]2CCNC2)nc1Nc1ccc2ncccc2c1` [Example 56, (R)-5-(pyrrolidin-3-ylamino)-3-(quinolin-6-ylamino)pyrazine-2-carboxamide], 0.001 to 0.01 µM.
Consider `NC(=O)c1ncc(N[C@H]2CCCNC2)nc1Nc1cnc2ccccc2c1` [Example 57, (S)-5-(piperidin-3-ylamino)-3-(quinolin-3-ylamino)pyrazine-2-carboxamide], for which the IC50 is 0.1 to 1 µM.
On to `NC(=O)c1ncc(N[C@H]2CCCNC2)nc1Nc1ccc2ncccc2c1` [Example 58, (S)-5-(piperidin-3-ylamino)-3-(quinolin-6-ylamino)pyrazine-2-carboxamide], for which the IC50 lay within 0.01 to 0.1 µM.
Take `CC(=O)N1CCN(c2ccc(Nc3nc(NC4CC4)cnc3C(N)=O)cc2)CC1` [Example 59, 3-(4-(4-acetylpiperazin-1-yl)phenylamino)-5-(cyclopropylamino)pyrazine-2-carboxamide]: the IC50 lay within 0.1 to 1 µM.
Turning to `CC(=O)N1CCN(c2ccc(Nc3cnc(C(N)=O)c(NC4CC4)n3)cc2)CC1` [Example 60, 5-(4-(4-acetylpiperazin-1-yl)phenylamino)-3-(cyclopropylamino)pyrazine-2-carboxamide], the IC50 is > 1 µM.
With `Cc1cccc(Nc2nc(N[C@@H]3CCCC[C@@H]3N)cnc2C(N)=O)c1` [Example 61, 5-((1R,2S)-2-aminocyclohexylamino)-3-(m-tolylamino)pyrazine-2-carboxamide] the figure was 0.1 to 1 µM; with `NC(=O)c1ncc(N[C@@H]2CCCC[C@@H]2N)nc1Nc1ccc(-n2cccn2)cc1` [Example 62, 3-(4-(1H-pyrazol-1-yl)phenylamino)-5-((1R,2S)-2-aminocyclohexylamino)pyrazine-2-carboxamide], 0.1 to 1 µM.
Turning to `Cc1cccc(Nc2nc(N[C@H](CC(C)C)C(N)=O)cnc2C(N)=O)c1` [Example 63, (R)-5-(1-amino-4-methyl-1-oxopentan-2-ylamino)-3-(m-tolylamino)pyrazine-2-carboxamide], the IC50 lay in the range of 0.01 to 0.1 µM.
With `CC(C)C[C@@H](Nc1cnc(C(N)=O)c(Nc2cccc(-n3nccn3)c2)n1)C(N)=O` [Example 64, (R)-3-(3-(2H-1,2,3-triazol-2-yl)phenylamino)-5-(1-amino-4-methyl-1-oxopentan-2-ylamino)pyrazine-2-carboxamide], the IC50 was in the range of 0.01 to 0.1 µM.
For `CC(C)[C@@H](Nc1cnc(C(N)=O)c(Nc2cccc(-n3nccn3)c2)n1)C(N)=O` [Example 65, (R)-3-(3-(2H-1,2,3-triazol-2-yl)phenylamino)-5-(1-amino-3-methyl-1-oxobutan-2-ylamino)pyrazine-2-carboxamide] the value was 0.01 to 0.1 µM.
`CC(C)[C@@H](Nc1cnc(C(N)=O)c(Nc2cnc3ccccc3c2)n1)C(N)=O` [Example 66, (R)-5-(1-amino-3-methyl-1-oxobutan-2-ylamino)-3-(quinolin-3-ylamino)pyrazine-2-carboxamide]: the IC50 was 0.001 to 0.01 µM.
On to `CC(C)[C@@H](Nc1cnc(C(N)=O)c(Nc2ccc3ncccc3c2)n1)C(N)=O` [Example 67, (R)-5-(1-amino-3-methyl-1-oxobutan-2-ylamino)-3-(quinolin-6-ylamino)pyrazine-2-carboxamide], for which the IC50 was 0.001 to 0.01 µM.

The record behind these values is US9359308B2, “Pyrazine kinase inhibitors” (Portola Pharmaceuticals, Inc., priority 2011, dated 2016).
